Each structure is given as a SMILES string. Bounds are passed on as bounds.

The values below come from patent US20240299385A1 (ReWind Therapeutics NV, priority 2021, published 2024).

T1 sequence (Q13304 whole entry): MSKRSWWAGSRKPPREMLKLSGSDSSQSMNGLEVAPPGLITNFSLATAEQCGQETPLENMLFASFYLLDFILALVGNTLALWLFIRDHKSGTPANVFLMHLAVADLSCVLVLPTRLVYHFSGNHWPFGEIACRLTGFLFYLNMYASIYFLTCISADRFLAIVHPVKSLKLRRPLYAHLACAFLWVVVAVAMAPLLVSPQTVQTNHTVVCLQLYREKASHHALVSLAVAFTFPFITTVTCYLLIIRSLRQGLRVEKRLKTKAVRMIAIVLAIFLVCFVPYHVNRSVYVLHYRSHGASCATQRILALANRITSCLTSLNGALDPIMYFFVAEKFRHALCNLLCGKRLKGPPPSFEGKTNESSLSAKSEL

The test has as its target T1, human GPR17 receptor (Homo sapiens, UniProt Q13304).
T1 construct: host or cells: HEK-293
As to the kind of experiment: Calcium mobilization functional assay (Fluo-8, FLIPR TETRA) in HEK-293 hGPR17 (Gα-q assay). Format: cell-based. Conditions: antagonism of MDL29,951 (~EC80) induced Ca2+ signal; cell line (HEK-293 hGPR17 or HEK-293 Suchi5 hGPR17) not given. How it is done: HEK-293 cells stably expressing the human GPR17 receptor (HEK-293 hGPR17) developed by Axxam (Bresso, Milan, Italy) were cultured at 37° C. in a humidified atmosphere of 5% CO2. Cells were grown in EMEM supplemented with FBS (10%), Penicillin/Streptomycin (1%), Ultraglutamine I (2 mM), puromycin (0.6 μg/mL), G418 (0.4 mg/mL), zeocin (50 μg/mL). This cell line was used to test the compound antagonistic activity by monitoring the Gα-q based signaling. Signaling via Gα-q leads to mobilization of calcium from internal stores. Elevated intracellular calcium levels can then be measured with calcium-sensitive fluorescent dyes (e.g., Fluo 8-No Wash Dye).
GPR17 activation leads to both an increase in intracellular calcium (via Gα-q) and a decrease in cAMP levels (via Gα-i), implicating that both of these pathways play a role for in vivo function.
Experiments were performed using the below cell lines, as described in part 1: • HEK-293 hGPR17 (used to study the compounds acting via Gα-q pathway) • HEK-293 Suchi5 hGPR17 (used to study the compounds acting via Gα-i pathway, where the Gα-i signaling is switched to a Gα-q signaling thanks to the Gα-i/q chimera Suchi5)
GPR17 activation was able to induce an endoplasmic reticulum calcium (Ca^2+) store release in cytosol which could be measured using the fluorescent Ca^2+ sensitive dye Fluo-8 No Wash Dye as readout.
HEK-293 hGPR17 and HEK-293 Suchi5 hGPR17 were seeded at a density of 15,000 cells/well into poly-D-lysine coated black 384-well plates with clear bottom in complete medium. Cells were incubated overnight at 37° C. in a humidified atmosphere of 5% CO2. Twenty-four hours after seeding, the culture medium was carefully removed manually and the cells were loaded for 60 minutes at room temperature with the Ca^2+ sensitive Fluo-8 No Wash Dye, according to manufacturer's instructions. Cells were then assayed using a fluorometric imaging plate reader (FLIPR^TETRA). Fluorescence (excitation: 470-495 nm; emission: 515-575 nm) was recorded during the experiment. […] After twenty minutes, a second injection of MDL29,951 at ˜EC80 (500 nM for HEK-293 hGPR17 and 2 nM for HEK-293 Suchi5 hGPR17) in assay buffer was performed at the FLIPR^TETRA and the signal of the emitted fluorescence was recorded for additional 2 minutes. All the compound injections and incubations were performed in duplicate. For data quality and data analysis the Screener® 16.0.6 (Genedata) software was used.
For orientation: A change in cytosolic calcium serves as a functional read-out for many receptors and channels.
The term IC50 denotes the concentration that inhibits the measured activity by half. Consider `N#Cc1ccc(NS(=O)(=O)c2c[nH]c(-c3ccccc3)c2)nc1` [Cpd 037, N-(5-cyano-2-pyridyl)-5-phenyl-1H-pyrrole-3-sulfonamide], for which the IC50 fell in the range of 5 to 50 µM.

For `N#Cc1ccc(NS(=O)(=O)c2c[nH]c(-c3ccc(F)cc3F)c2)c(F)c1` [Cpd 038, N-(4-cyano-2-fluoro-phenyl)-5-(2,4-difluorophenyl)-1H-pyrrole-3-sulfonamide], the IC50 was less than 0.5 µM.

On to `N#Cc1ccc(NS(=O)(=O)c2c[nH]c(-c3cccc(Cl)c3F)c2)c(F)c1` [Cpd 039, 5-(3-chloro-2-fluoro-phenyl)-N-(4-cyano-2-fluoro-phenyl)-1H-pyrrole-3-sulfonamide], for which the 50% inhibitory concentration (IC50) is less than 0.5 µM.

As for `N#Cc1ccc(NS(=O)(=O)c2c[nH]c(-c3cccc(F)c3F)c2)c(F)c1` [Cpd 040, N-(4-cyano-2-fluoro-phenyl)-5-(2,3-difluorophenyl)-1H-pyrrole-3-sulfonamide], the IC50 was less than 0.5 µM.

`N#Cc1ccc(NS(=O)(=O)c2c[nH]c(-c3cc(F)ccc3F)c2)c(F)c1` [Cpd 041, N-(4-cyano-2-fluoro-phenyl)-5-(2,5-difluorophenyl)-1H-pyrrole-3-sulfonamide]: the IC50 is less than 0.5 µM.

On to `Cc1cccc(-c2cc(S(=O)(=O)Nc3ccc(C#N)cc3F)c[nH]2)c1F` [Cpd 042, N-(4-cyano-2-fluoro-phenyl)-5-(2-fluoro-3-methyl-phenyl)-1H-pyrrole-3-sulfonamide], for which the IC50 is less than 0.5 µM.

Turning to `Cc1ccc(-c2cc(S(=O)(=O)Nc3ccc(C#N)cc3F)c[nH]2)c(F)c1` [Cpd 043, N-(4-cyano-2-fluoro-phenyl)-5-(2-fluoro-4-methyl-phenyl)-1H-pyrrole-3-sulfonamide], the 50% inhibitory concentration (IC50) lay within 0.5 to 5 µM.

As for `Cc1ccc(F)c(-c2cc(S(=O)(=O)Nc3ccc(C#N)cc3F)c[nH]2)c1` [Cpd 044, N-(4-cyano-2-fluoro-phenyl)-5-(2-fluoro-5-methyl-phenyl)-1H-pyrrole-3-sulfonamide], the half-inhibitory concentration (IC50) was less than 0.5 µM.

With `N#Cc1ccc(NS(=O)(=O)c2c[nH]c(-c3ccc(Cl)cc3F)c2)c(F)c1` [Cpd 045, 5-(4-chloro-2-fluoro-phenyl)-N-(4-cyano-2-fluoro-phenyl)-1H-pyrrole-3-sulfonamide], the IC50 fell in the range of 0.5 to 5 µM.

`N#Cc1ccc(NS(=O)(=O)c2c[nH]c(-c3cc(Cl)ccc3F)c2)c(F)c1` [Cpd 046, 5-(5-chloro-2-fluoro-phenyl)-N-(4-cyano-2-fluoro-phenyl)-1H-pyrrole-3-sulfonamide]: the IC50 was less than 0.5 µM.

Regarding `O=S(=O)(Nc1cc(F)c(F)cc1F)c1c[nH]c(-c2ccccc2F)c1` [Cpd 047, 5-(2-fluorophenyl)-N-(2,4,5-trifluorophenyl)-1H-pyrrole-3-sulfonamide], the IC50 was 0.5 to 5 µM.

Take `O=S(=O)(Nc1ncc(Cl)cc1F)c1c[nH]c(-c2ccccc2F)c1` [Cpd 048, N-(5-chloro-3-fluoro-2-pyridyl)-5-(2-fluorophenyl)-1H-pyrrole-3-sulfonamide]: the IC50 lay in the range of 0.5 to 5 µM.

In the case of `O=S(=O)(Nc1cccc2c1OCO2)c1c[nH]c(-c2ccccc2F)c1` [Cpd 049, N-(1,3-benzodioxol-4-yl)-5-(2-fluorophenyl)-1H-pyrrole-3-sulfonamide], the IC50 fell in the range of 0.5 to 5 µM.

As to `O=S(=O)(Nc1cccc2nsnc12)c1c[nH]c(-c2ccccc2F)c1` [Cpd 050, N-(2,1,3-benzothiadiazol-4-yl)-5-(2-fluorophenyl)-1H-pyrrole-3-sulfonamide], the IC50 was less than 0.5 µM.

On to `O=S(=O)(Nc1cc(F)ccc1F)c1c[nH]c(-c2ccccc2F)c1` [Cpd 051, N-(2,5-difluorophenyl)-5-(2-fluorophenyl)-1H-pyrrole-3-sulfonamide], for which the IC50 is 0.5 to 5 µM.

For the molecule `O=S(=O)(Nc1ccc(Cl)cc1F)c1c[nH]c(-c2ccccc2F)c1` [Cpd 052, N-(4-chloro-2-fluoro-phenyl)-5-(2-fluorophenyl)-1H-pyrrole-3-sulfonamide], the IC50 is 0.5 to 5 µM.

With `N#CCc1ccc(NS(=O)(=O)c2c[nH]c(-c3ccccc3F)c2)c(F)c1` [Cpd 053, N-[4-(cyanomethyl)-2-fluoro-phenyl]-5-(2-fluorophenyl)-1H-pyrrole-3-sulfonamide], the IC50 lay in the range of 0.5 to 5 µM.

On to `O=S(=O)(Nc1ccc(F)cc1F)c1c[nH]c(-c2ccccc2F)c1` [Cpd 054, N-(2,4-difluorophenyl)-5-(2-fluorophenyl)-1H-pyrrole-3-sulfonamide], for which the IC50 fell in the range of 5 to 50 µM.

In the case of `O=S(=O)(Nc1ccc(C(F)(F)F)cc1F)c1c[nH]c(-c2ccccc2F)c1` [Cpd 055, 5-(2-fluorophenyl)-N-[2-fluoro-4-(trifluoromethyl)phenyl]-1H-pyrrole-3-sulfonamide], the IC50 fell in the range of 0.5 to 5 µM.

As to `O=S(=O)(Nc1cccc(F)c1F)c1c[nH]c(-c2ccccc2F)c1` [Cpd 056, N-(2,3-difluorophenyl)-5-(2-fluorophenyl)-1H-pyrrole-3-sulfonamide], the half-inhibitory concentration (IC50) was 5 to 50 µM.

Consider `Cc1ccc(NS(=O)(=O)c2c[nH]c(-c3ccccc3F)c2)c(F)c1` [Cpd 057, N-(2-fluoro-4-methyl-phenyl)-5-(2-fluorophenyl)-1H-pyrrole-3-sulfonamide], for which the IC50 was 0.5 to 5 µM.

For `N#Cc1ccc(NS(=O)(=O)c2c[nH]c(-c3ccccc3F)c2)cc1Cl` [Cpd 058, N-(3-chloro-4-cyano-phenyl)-5-(2-fluorophenyl)-1H-pyrrole-3-sulfonamide], the IC50 fell in the range of 0.5 to 5 µM.

In the case of `COc1cc(NS(=O)(=O)c2c[nH]c(-c3ccccc3F)c2)ccc1C#N` [Cpd 059, N-(4-cyano-3-methoxy-phenyl)-5-(2-fluorophenyl)-1H-pyrrole-3-sulfonamide], the half-inhibitory concentration (IC50) lay in the range of 0.5 to 5 µM.

Regarding `COc1cc(C(F)(F)F)cnc1NS(=O)(=O)c1c[nH]c(-c2ccccc2F)c1` [Cpd 060, 5-(2-fluorophenyl)-N-[3-methoxy-5-(trifluoromethyl)pyridin-2-yl]-1H-pyrrole-3-sulfonamide], the IC50 is 0.5 to 5 µM.

For the molecule `COc1cc(CC#N)cnc1NS(=O)(=O)c1c[nH]c(-c2ccccc2)c1` [Cpd 061, N-[5-(cyanomethyl)-3-methoxypyridin-2-yl]-5-phenyl-1H-pyrrole-3-sulfonamide], the concentration for half-maximal inhibition (IC50) is less than 0.5 µM.

On to `COc1cc(Br)cnc1NS(=O)(=O)c1c[nH]c(-c2ccccc2)c1` [Cpd 062, N-(5-bromo-3-methoxypyridin-2-yl)-5-phenyl-1H-pyrrole-3-sulfonamide], for which the IC50 was 0.5 to 5 µM.

With `COc1cc(C#N)c(F)cc1NS(=O)(=O)c1c[nH]c(-c2ccccc2)c1` [Cpd 063, N-(4-cyano-5-fluoro-2-methoxyphenyl)-5-phenyl-1H-pyrrole-3-sulfonamide], the IC50 is less than 0.5 µM.

`N#Cc1cc(F)c(NS(=O)(=O)c2c[nH]c(-c3ccccc3)c2)c(F)c1` [Cpd 064, N-(4-cyano-2,6-difluoro-phenyl)-5-phenyl-1H-pyrrole-3-sulfonamide]: the IC50 was in the range of 0.5 to 5 µM.

In the case of `N#CCOc1cc(F)c(NS(=O)(=O)c2c[nH]c(-c3ccccc3)c2)cc1F` [Cpd 065, N-[4-(cyanomethoxy)-2,5-difluoro-phenyl]-5-phenyl-1H-pyrrole-3-sulfonamide], the IC50 is less than 0.5 µM.

Turning to `N#Cc1ccc(NS(=O)(=O)c2c[nH]c(-c3ccncc3F)c2)c(F)c1` [Cpd 066, N-(4-cyano-2-fluoro-phenyl)-5-(3-fluoro-4-pyridyl)-1H-pyrrole-3-sulfonamide], the IC50 lay in the range of 0.5 to 5 µM.

As to `Cc1[nH]cc(S(=O)(=O)Nc2ccc(C#N)cc2F)c1Cc1ccccc1` [Cpd 067, 4-benzyl-N-(4-cyano-2-fluorophenyl)-5-methyl-1H-pyrrole-3-sulfonamide], the IC50 fell in the range of 5 to 50 µM.
